Test results from patent publication US10556860B2, “hTERT modulators and methods of use” (Arizona Board of Regents on Behalf of the University of …, priority 2015, dated 2020).

Tests used:
BAX/BCL2 mRNA ratio = test: BAX/BCL2 ratio in MCF7 cells; type: cell-based, human; settings: 0.5-1 μM, 72 h, relative to DMSO
Protocol: FIG. 11 is a graph showingincrease of BAX/BCL2 ratios by GTC365 in mRNA levels. MCF7 cells were treated with GTC365 for 72 h and then subjected to qPCR and immunoblot analysis. The relative ratio of BAX/BCL2 was determined compared with a DMSO-treated sample.
Indeed at 0.5-1 μM, the BAX/BCL2 ratio was increased by over 2-fold and the capase-3 activity was increased by 47% (FIGS. 11 and 12).

[1] = system: G138/139A mutant hTERT G-quadruplex; test: CD melting (Tm), G138/139A mutant; type: binding, human; settings: 2 equiv
Protocol: Circular dichroism. Oligomers of WT, G124A, G124/125A, G138/139A and G146A were synthesized and HPSF-purified by MGW Operon, Inc. For CD analysis, oligomers (5 μM) in a buffer containing 10 mM Tris-HCl (pH 7.5) and 140 mM KCl were annealed. For the CD analysis of the complex of oligomers and compounds, oligomers (5 μM) in a buffer containing 10 mM Tris-HCl (pH 7.5) and 5 mM KCl for GTC365 or 1 mM KCl for BRACO-19 were annealed. Oligomers and GTC365 or BRACO-19 were incubated overnight at room temperature. For the full-length of C-rich strand, the oligomer in a buffer of 10 mM Na cacodylate (pH 6.6) was annealed and then incubated with GTC365 overnight. CD analysis was conducted on a Jasco 810 spectropolarimeter (Jasco, Easton, Md.) using a quartz cell with 1 mm of path length, 1 nm of band width, and 1 s of response time for spectra at 20° C. Melting curves for the determination of Tm were obtained by recording ellipticity at 262 nm with increasing temperatures from 25° C. to 95° C. at a rate of 1.6° C./min. Tm of the C-rich strand with GTC365 was obtained from the CD signal at 286 nm within 10-60° C.
CD and DMS footprinting analyses were conducted to characterize the binding of GTC365 and BRACO-19 to the 5-12 G-quadruplex. […] To verify the effects of compounds on the thermal stability of the WT and the mutant G-quadruplexes, Tms were determined by CD. […]

hTERT protein = test: Western blot of hTERT protein in MCF7 cells; type: cell-based, human
Protocol: Western blot analysis. GTC365- or DMSO-treated MCF7 cells were lysed by RIPA buffer and the supernatant of lysate was obtained by centrifugation at 14,000 rpm for 15 min. The concentration of the whole cellular protein was determined by Bradford assay. The same amount of proteins (120 μg) was separated on 8% SDS-PAGE and transferred to PVDF membrane in 20% MeOH/1× Tris-glycine. The membrane was incubated in a blocking buffer containing 5% BSA/5% non-fat milk with TBS-T (0.1% Tween 20) for 90 min at room temperature prior to overnight incubation with hTERT antibody against rabbit (1:200, Santa Cruz #H231, pAb) in 5% BSA/TBS-T buffer at 4° C. […]
Immunoblot analysis. […] The concentration of the whole cellular protein was determined byBradford assay. […]
BCL2 is a downstream molecule to hTERT such that BCL2 expression is activated by hTERT to repress apoptosis. To further define the effect of GTC365 on the transcription of hTERT, the relative mRNA levels of MYC and BCL2 were determined by quantitative PCR analysis in MCF7 cells after treatment with GTC365 for 72 h. […] A series of GTC260 analogs were synthesized and their effect on hTERT gene expression in MCF7A and U87 cells determined (FIG. 7). […]

`N=C(N)NCCCS(=O)(=O)Nc1ccc(Nc2c3ccccc3nc3cc([N+](=O)[O-])ccc23)cc1` [GTC365] was tested, and the “increase of BAX/BCL2 ratio” value (BAX/BCL2 mRNA ratio) was “over 2 fold”, the “Tm more increased compared to the WT” value [1] was 6-7 °C and the hTERT protein level (hTERT protein) was “downregulated”.
